In patent EP0054873A1, “3,4-Di-substituted 1,2,5-oxadiazole-2 oxides, method for their preparation and pharmaceutical compositions containing them” (CASSELLA Aktiengesellschaft, priority 1980, dated 1982):

Test system: Bastardhunden
Experiment: Haemodynamic study of antianginal and antihypertensive effect in anaesthetised mongrel dogs
Format: in vivo
Details: change from steady state
Protocol: Die Untersuchungen über die antianginöse und antihypertensive Wirkung der Verbindungen der Formel I wurden an Bastardhunden beiderlei Geschlechts in Pentobarbital-Narkose (30 bis 40 mg/kg i.v.) oder in Urethan-Chloralose-Narkose (3 ml/kg Urethan-Chloralose-Gemisch i.v. = 20 mg/kg Chloralose und 250 mg/kg Urethan) durchgeführt. Die Beatmung der Tiere erfolgte mit einem Bird-Mark-7-Respi- rator. […] Während des gesamten Versuchs erhielten die Tiere mit Pentobarbital-Narkose eine Dauerinfusion von Pentobarbital i.v. = 4 mg/kg/6ml/h, um eine konstante Narkosetiefe zu gewährleisten; die Tiere mit Urethan-Chloralose-Narkose erhielten keine Dauerinfusion. Die Infusion wurde durch die Vena cephalica gegeben. Nach der Präparation des Versuchstieres wurde ca. 1 Stunde gewartet, bis sich alle haemodynamischen Parameter eingestellt hatten (steady state). Danach wurde mit dem eigentlichen Versuch begonnen.
Der systolische und diastolische Blutdruck wurde peripher in der Arteria femoralis über einen Statham-Druckaufnehmer gemessen. Ein über die Arteria carotis in den linken Ventrikel geschobener Millar-Tip-Katheter lieferte das Signal für den LVEDP(linksvcntrikulärer enddiastolischer Druck) und die Herzfrequenz. Mit einem zweiten, über die Vena ju-fularis eingeschobenen Tip-Katheter wurde der mittlere Blutdruck in der Arteria pulmonalis erfaßt. Die erhaltenen Ergebnisse sind in der folgenden Tabelle angegeben.

Structure (SMILES) | BDm Δ (mittlerer peripherer Blutdruck) (Dosis 0,1 mg/kg i.v.) | LVEDP Δ (linksventrikulärer enddiastolischer Druck) (Dosis 0,1 mg/kg i.v.) | PAP Δ (mittlerer Pulmonalarteriendruck) (Dosis 0,1 mg/kg i.v.) | BDm Δ (mittlerer peripherer Blutdruck) (Dosis 0,05 mg/kg i.v.) | LVEDP Δ (linksventrikulärer enddiastolischer Druck) (Dosis 0,05 mg/kg i.v.) | PAP Δ (mittlerer Pulmonalarteriendruck) (Dosis 0,05 mg/kg i.v.)
COCCNC(=O)c1no[n+]([O-])c1C [B] | -25 mmHg | -2,5 mm/Hg | -1 mmHg |  |  | 
Cc1c(C(=O)NCc2cccnc2)no[n+]1[O-] [C] |  |  |  | -35 mmHg | -2 mm/Hg | -1 mmHg
CNC(=O)c1c(C)no[n+]1[O-] [A] |  |  |  | -30 mmHg | -3 mm/Hg | -2 mmHg
